# Source: patent US20090253616A1, “COMBINATION THERAPY FOR THE TREATMENT OF CANCER” (ASTRAZENECA AB, priority 2006, published 2009)
# Test system: MCF7 ADR cells
# Assay: Activity in MDR cells: inhibition of phosphohistone H3 (phH3) in MCF7 ADR cells, with and without UIC2 mAb
# Assay type: cell-based
# Procedure: MCF7 ADR cells are known to highly express Pgp and other efflux transporters.
# On day 1; 8×10^4 MCF7 ADR cells/ml were plated into a 96 well plate in 100 μl of media (DMEM, 10% FCS, 1% glutamine) and left to adhere at 37° C. overnight.
# After 24 hours the cells were examined using the light microscope, and any cellular change in morphology was noted. The cells were then fixed with 100 μl of 3.7% formaldehyde for 30 minutes at room temperature and then washed in PBS using an automated plate washer. 1001 PBS 0.5% triton X-100 was then added for 5 minutes on a shaker. The plate was washed in 100 μl PBS and 50 μl of primary antibody (1:1000 rabbit anti-phosphohistone H3 in PBS 1% BSA 0.5% tween) was added. The plate was left for at least 1 hour at room temperature, on a shaker, after which the antibody was removed and the cells washed twice with PBS. In darkness, 50 μl of secondary antibody (1:10,000 Hoechst and 1:1000 Alexa Fluor 488 anti rabbit in PBS 1% BSA 0.5% tween) was added and the plate left for at least 1 hour at room temperature. The secondary antibody was removed and the plate washed twice with PBS. 200 μl PBS was then added and left for 10 minutes with shaking. The PBS was removed. 100 μl PBS was added and the plate sealed prior to analysis. […]
# The plate was analysed on a Cellomics Arrayscan using the Target Activation algorithm. […]
smiles,measurement,setting,value
"CCN(CCCOc1ccc2c(Nc3cc(CC(=O)Nc4cccc(F)c4)[nH]n3)ncnc2c1)CCOP(=O)(O)O [aurora kinase inhibitor, 2-[[3-({4-[(5-{2-[(3-fluorophenyl)amino]-2-oxoethyl}-1H-pyrazol-3-yl)amino]-quinazolin-7-yl}oxy)propyl](ethyl)amino]ethyl dihydrogen phosphate]",activity of aurora kinase inhibitor alone (inhibition of phH3),100 nM,inactive
same,Pgp mediated efflux of the compound (substrate of Pgp),efflux inhibited by UIC2 mAb 10 μg/ml,Pgp mediated efflux
